Key:
[1] = molecular target: T1, RAP74-CTD (Homo sapiens, UniProt P35269); assay: NMR chemical shift perturbation titration of peptides into 15N RAP74-CTD (KD); type: binding; conditions: 15 molar equivalents of peptide, NMR
T1 construct: spanning residues 450-517; His6-MBP (with TEV site) (N, cleaved yes); made in house; host or cells: E. coli Rosetta (DE3)pLysS
T1 sequence (P35269 450-517): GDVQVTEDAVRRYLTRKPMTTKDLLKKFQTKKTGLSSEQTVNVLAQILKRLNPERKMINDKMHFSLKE
Method: Recombinant samples with ^15N isotope enrichment of the C-terminal domain of subunit 1 of the general transcription regulator TFIIF (RAP74-CTD), spanning residues 450-517, were obtained as described previously. A codon-optimized synthetic gene cloned in a pDONR221 vector was obtained from GeneArt (Thermo Fisher Scientific, Waltham, MA, USA) and subcloned into a pDEST-His6MBP vector obtained from Addgene. Rosetta (DE3)pLysS competent cells (Novagen, Merck KGaA, Darmstadt, Germany) were grown in MOPS medium with ^15NH4Cl as the only nitrogen source (310 K, induction at OD600 = 0.7, 1 mM IPTG, harvesting 3 h after induction). Soluble fractions of cell lysates from sonication in lysis buffer (50 mM Tris-HCl, 1 M NaCl, 10 mM imidazole, pH 8.0) were purified by IMAC, and fractions containing the His6MBP-TEV-RAP74-CTD fusion were dialyzed at 277 K overnight against cleavage buffer (50 mM Tris-HCl, 200 mM NaCl, 0.5 mM EDTA, pH 8.0) in the presence of TEV protease (50 μg/mL). A second IMAC step was performed and the flow-through containing the RAP-CTD was loaded onto a HiTrap SP HP cation exchange column followed by a size exclusion chromatography step on a Superdex 75 GL 10/300 column equilibrated with NMR buffer (20 mM sodium phosphate, 0.1% trifluoroacetic acid, pH 7.4), both mounted in an Äkta Purifier System (GE Healthcare, Chicago, IL, USA). The sample was concentrated to 100 μM using an Amicon Ultra 15 mL centrifugal filter (Merck KGaA, Darmstadt, Germany).
Before the experiment, both the protein and the peptide were dialyzed (277 K, two dialysis steps) in the same preparation of NMR buffer (20 mM sodium phosphate, 0.1% trifluoroacetic acid, pH 7.4), using a Pur-A-Lyzer (Sigma-Aldrich, Burlington, MA, USA) and a Micro Float-A-Lyzer (Spectrum Laboratories, San Francisco, CA, USA) respectively. The chemical shift assignment of RAP74-CTD was reported previously (BMRB code 27288). Averaged ^1H and ^15N chemical shift perturbations (CSPs) were calculated as:2 ΔδAV=(Δδ1H)^2+1/5Δδ15N^2
Dissociation constants, KD, and averaged CSP amplitude, Δδmax, for δ, δstpl, γ and γstpl peptide binding to RAP74-CTD were obtained by a global fitting (nonlinear regression) of the 10% peaks with the largest averaged CSPs to the following single-site binding model (1:1 stoichiometry):3 Δδ=Δδmax([Protein]+[Peptide]+KD)−([Protein]+[Peptide]+KD)^2−4[Protein][Peptide]/2[Protein]

[2] = CD spectroscopy (helicity); type: physicochemical; conditions: 30 μM peptide, ratio taken as sign of monomeric helix
Method: Peptide samples for CD spectroscopy were diluted to a final concentration of 30 μM in a volume of 400 μL in either 20 mM phosphoric acid (pH 2.8) or sodium phosphate (pH 7.4) buffer. Spectra were obtained at 278 K (unless stated otherwise) in a Jasco 815 UV spectro-photopolarimeter with a 1 mm optical path cuvette using a data interval of 0.2 nm in the 190−260 nm range with a scanning speed of 50 nm min^−1 and 20 accumulations. A blank spectrum acquired on the pertaining buffer under the same experimental conditions was subtracted from the sample spectrum. Thermal denaturation experiments were performed by acquiring a single accumulation spectrum with the same parameters at 10 K intervals, with a temperature ramp speed of 10 K min^−1 and an equilibration time of 1 min.

## KKPGASLAALQALQALQAAQAAKKY [(P3-7)2, Gln-based single α-helix scaffold peptide]
[1]; RAP74-CTD residue 452
  CSPs (ppm) induced by peptide on 15N RAP74-CTD, residue 452: 0.00133 ppm
[1]; RAP74-CTD residue 453
  CSPs (ppm) induced by peptide on 15N RAP74-CTD, residue 453: 0.00174 ppm
[1]; RAP74-CTD residue 454
  CSPs (ppm) induced by peptide on 15N RAP74-CTD, residue 454: 0.00213 ppm
[1]; RAP74-CTD residue 455
  CSPs (ppm) induced by peptide on 15N RAP74-CTD, residue 455: 0.00368 ppm
[1]; RAP74-CTD residue 457
  CSPs (ppm) induced by peptide on 15N RAP74-CTD, residue 457: 0.000762 ppm
[1]; RAP74-CTD residue 458
  CSPs (ppm) induced by peptide on 15N RAP74-CTD, residue 458: 0.00141 ppm
[1]; RAP74-CTD residue 459
  CSPs (ppm) induced by peptide on 15N RAP74-CTD, residue 459: 0.00114 ppm
[1]; RAP74-CTD residue 460
  CSPs (ppm) induced by peptide on 15N RAP74-CTD, residue 460: 0.00136 ppm
[1]; RAP74-CTD residue 461
  CSPs (ppm) induced by peptide on 15N RAP74-CTD, residue 461: 0.00237 ppm
[1]; RAP74-CTD residue 462
  CSPs (ppm) induced by peptide on 15N RAP74-CTD, residue 462: 0.00141 ppm
[1]; RAP74-CTD residue 463
  CSPs (ppm) induced by peptide on 15N RAP74-CTD, residue 463: 0.00149 ppm
[1]; RAP74-CTD residue 464
  CSPs (ppm) induced by peptide on 15N RAP74-CTD, residue 464: 0.002 ppm
[1]; RAP74-CTD residue 465
  CSPs (ppm) induced by peptide on 15N RAP74-CTD, residue 465: 0.000665 ppm
[1]; RAP74-CTD residue 466
  CSPs (ppm) induced by peptide on 15N RAP74-CTD, residue 466: 0.00337 ppm
[1]; RAP74-CTD residue 468
  CSPs (ppm) induced by peptide on 15N RAP74-CTD, residue 468: 0.000677 ppm
[1]; RAP74-CTD residue 469
  CSPs (ppm) induced by peptide on 15N RAP74-CTD, residue 469: 0.00178 ppm
[1]; RAP74-CTD residue 470
  CSPs (ppm) induced by peptide on 15N RAP74-CTD, residue 470: 0.00475 ppm
[1]; RAP74-CTD residue 471
  CSPs (ppm) induced by peptide on 15N RAP74-CTD, residue 471: 0.006 ppm
[1]; RAP74-CTD residue 472
  CSPs (ppm) induced by peptide on 15N RAP74-CTD, residue 472: 0.003 ppm
[1]; RAP74-CTD residue 473
  CSPs (ppm) induced by peptide on 15N RAP74-CTD, residue 473: 0.00131 ppm
[1]; RAP74-CTD residue 474
  CSPs (ppm) induced by peptide on 15N RAP74-CTD, residue 474: 0.000952 ppm
[1]; RAP74-CTD residue 475
  CSPs (ppm) induced by peptide on 15N RAP74-CTD, residue 475: 0.0011 ppm
[1]; RAP74-CTD residue 476
  CSPs (ppm) induced by peptide on 15N RAP74-CTD, residue 476: 0.00225 ppm
[1]; RAP74-CTD residue 477
  CSPs (ppm) induced by peptide on 15N RAP74-CTD, residue 477: 0.0034 ppm
[1]; RAP74-CTD residue 478
  CSPs (ppm) induced by peptide on 15N RAP74-CTD, residue 478: 0.00316 ppm
[1]; RAP74-CTD residue 484
  CSPs (ppm) induced by peptide on 15N RAP74-CTD, residue 484: 0.00185 ppm
[1]; RAP74-CTD residue 487
  CSPs (ppm) induced by peptide on 15N RAP74-CTD, residue 487: 0.009 ppm
[1]; RAP74-CTD residue 488
  CSPs (ppm) induced by peptide on 15N RAP74-CTD, residue 488: 0.000614 ppm
[1]; RAP74-CTD residue 489
  CSPs (ppm) induced by peptide on 15N RAP74-CTD, residue 489: 0.00261 ppm
[1]; RAP74-CTD residue 490
  CSPs (ppm) induced by peptide on 15N RAP74-CTD, residue 490: 0.002 ppm
[1]; RAP74-CTD residue 491
  CSPs (ppm) induced by peptide on 15N RAP74-CTD, residue 491: 0.002 ppm
[1]; RAP74-CTD residue 492
  CSPs (ppm) induced by peptide on 15N RAP74-CTD, residue 492: 0.003 ppm
[1]; RAP74-CTD residue 493
  CSPs (ppm) induced by peptide on 15N RAP74-CTD, residue 493: 0.00151 ppm
[1]; RAP74-CTD residue 494
  CSPs (ppm) induced by peptide on 15N RAP74-CTD, residue 494: 0.00469 ppm
[1]; RAP74-CTD residue 495
  CSPs (ppm) induced by peptide on 15N RAP74-CTD, residue 495: 0.00146 ppm
[1]; RAP74-CTD residue 496
  CSPs (ppm) induced by peptide on 15N RAP74-CTD, residue 496: 0.00171 ppm
[1]; RAP74-CTD residue 497
  CSPs (ppm) induced by peptide on 15N RAP74-CTD, residue 497: 0.00134 ppm
[1]; RAP74-CTD residue 498
  CSPs (ppm) induced by peptide on 15N RAP74-CTD, residue 498: 0.00172 ppm
[1]; RAP74-CTD residue 499
  CSPs (ppm) induced by peptide on 15N RAP74-CTD, residue 499: 0.000579 ppm
[1]; RAP74-CTD residue 500
  CSPs (ppm) induced by peptide on 15N RAP74-CTD, residue 500: 0.00095 ppm
[1]; RAP74-CTD residue 501
  CSPs (ppm) induced by peptide on 15N RAP74-CTD, residue 501: 0.00151 ppm
[1]; RAP74-CTD residue 503
  CSPs (ppm) induced by peptide on 15N RAP74-CTD, residue 503: 0.000881 ppm
[1]; RAP74-CTD residue 504
  CSPs (ppm) induced by peptide on 15N RAP74-CTD, residue 504: 0.002 ppm
[1]; RAP74-CTD residue 505
  CSPs (ppm) induced by peptide on 15N RAP74-CTD, residue 505: 0.002 ppm
[1]; RAP74-CTD residue 506
  CSPs (ppm) induced by peptide on 15N RAP74-CTD, residue 506: 0.008 ppm
[1]; RAP74-CTD residue 507
  CSPs (ppm) induced by peptide on 15N RAP74-CTD, residue 507: 0.004 ppm
[1]; RAP74-CTD residue 509
  CSPs (ppm) induced by peptide on 15N RAP74-CTD, residue 509: 0.00319 ppm
[1]; RAP74-CTD residue 510
  CSPs (ppm) induced by peptide on 15N RAP74-CTD, residue 510: 0.000691 ppm
[1]; RAP74-CTD residue 512
  CSPs (ppm) induced by peptide on 15N RAP74-CTD, residue 512: 0.00469 ppm
[1]; RAP74-CTD residue 513
  CSPs (ppm) induced by peptide on 15N RAP74-CTD, residue 513: 0.00335 ppm
[1]; RAP74-CTD residue 514
  CSPs (ppm) induced by peptide on 15N RAP74-CTD, residue 514: 0.001 ppm
[1]; RAP74-CTD residue 515
  CSPs (ppm) induced by peptide on 15N RAP74-CTD, residue 515: 0.00145 ppm
[1]; RAP74-CTD residue 516
  CSPs (ppm) induced by peptide on 15N RAP74-CTD, residue 516: 0.00117 ppm
[1]; RAP74-CTD residue 517
  CSPs (ppm) induced by peptide on 15N RAP74-CTD, residue 517: 0.000251 ppm
[2]
  Θ222 nm/Θ208 nm: < 1

Reference: article PMC9674830, “A glutamine-based single α-helix scaffold to target globular proteins” (Nature Communications, 2022)
